Data on one compound can be found in patent US11285208B2, “Therapeutic agents for pancreatic cancer” (NATIONAL CANCER CENTER, priority 2010, dated 2022).

Counter-ions that a name gives are not always drawn.

Test [1] concerns pancreatic cancer. The note with it: first-line therapy, foreign phase III clinical trials; cited from earlier work.
Test [2] concerns progressive/metastatic pancreatic cancer. Description: Clinical performance of gemcitabine hydrochloride monotherapy in progressive/metastatic pancreatic cancer patients. Type of test: in vivo, human. An excerpt:
Thus, the tumor reducing effect and ascites eliminating effect observed in one case of combination therapy were not observed with monotherapy.

With `Nc1ccn([C@@H]2O[C@H](CO)[C@@H](O)C2(F)F)c(=O)n1` [gemcitabine hydrochloride], in test [1], the “Efficacy in symptom palliation” value was 23.8%, the Median survival time is reported as 5.7 months and the One-year survival rate is 18%. In test [2] (3 months after the start of monotherapy, 25 analyzable cases, 95% confidence interval 4.6-67.4%), the “Average change in tumor size (increase)” value is 36.0%. The Ascites elimination entry in test [2] (during the monotherapy of 3 months, 29 analyzable cases) is “ascites was not eliminated”.
